The results in this text go back to US10336762B2 (priority 2017, dated 2019).

One assay has as its target IRAK4 enzyme (Homo sapiens (Human), UniProt Q9NWZ3). Description: biochemical. The settings on record: IRAK4 enzyme, TR-FRET (HTRF), 500 μM ATP. The format is biochemical.
Another assay concerns TNFα. Description: cells. It is filed as cell-based, human. The following applies: Homo sapiens, Monocyte, LPS-stimulated human monocytes, TNFα content; read-out: EC50 TNF.

Chain of IRAK4 enzyme (Q9NWZ3 whole entry): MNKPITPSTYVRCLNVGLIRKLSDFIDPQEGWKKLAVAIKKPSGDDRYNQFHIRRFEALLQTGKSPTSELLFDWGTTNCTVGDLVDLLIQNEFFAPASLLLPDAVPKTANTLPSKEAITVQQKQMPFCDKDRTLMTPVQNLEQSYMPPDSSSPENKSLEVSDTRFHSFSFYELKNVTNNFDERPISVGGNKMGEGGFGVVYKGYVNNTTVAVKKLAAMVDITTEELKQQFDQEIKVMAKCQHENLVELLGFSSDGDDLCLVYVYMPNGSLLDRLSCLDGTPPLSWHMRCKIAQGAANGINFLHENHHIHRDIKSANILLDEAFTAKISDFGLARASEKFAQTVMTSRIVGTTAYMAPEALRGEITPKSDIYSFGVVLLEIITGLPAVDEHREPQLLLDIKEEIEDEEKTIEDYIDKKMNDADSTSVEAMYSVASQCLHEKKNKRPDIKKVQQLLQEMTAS

In the case of `CC(C)(O)[C@H](F)CNC(=O)c1cnc(-c2ccc3cc(C#N)cnn23)cc1N[C@H]1C[C@H](S(C)(=O)=O)C1` [Example 443, 6-(3-cyanopyrrolo[1,2-b]pyridazin-7-yl)-N-((R)-2-fluoro-3-hydroxy-3-methylbutyl)-4-(((1r,3R)-3-(methylsulfonyl)cyclobutyl)amino)nicotinamide], the IC50 on IRAK4 enzyme turned out to be 1 nM. Moreover, in the assay with TNFα, the EC50 worked out at 110 nM.
At IRAK4 enzyme, `CC(C)(O)[C@H](F)CNC(=O)c1cnc(-c2ccc3cc(C#N)cnn23)cc1N[C@H]1CC[C@](C)(O)CC1` [Example 445, 6-(3-cyanopyrrolo[1,2-b]pyridazin-7-yl)-N-((R)-2-fluoro-3-hydroxy-3-methylbutyl)-4-(((1r,4R)-4-hydroxy-4-methylcyclo-hexyl)amino)nicotinamide] had an IC50 of 1 nM. The EC50 in the assay with TNFα turned out to be 59 nM.
For `CC(C)(O)[C@H](F)CNC(=O)c1cnc(-c2ccc3cc(C#N)cnn23)cc1N[C@H]1C[C@](C)(O)C1` [Example 446, 6-(3-cyanopyrrolo[1,2-b]pyridazin-7-yl)-N-((R)-2-fluoro-3-hydroxy-3-methylbutyl)-4-(((1r,3R)-3-hydroxy-3-methylcyclobutyl)amino) nicotinamide], the IC50 against IRAK4 enzyme is 1 nM. In addition, in the assay on TNFα, the EC50 stood at 63 nM.
`CC(=O)N1CC2(CC(Nc3cc(-c4ccc5cc(C#N)cnn45)ncc3C(=O)NC[C@@H](F)C(C)(C)O)C2)C1` [Example 447, (R)-4-((2-acetyl-2-azaspiro[3.3]heptan-6-yl)amino)-6-(3-cyano-pyrrolo[1,2-b]pyridazin-7-yl)-N-(2-fluoro-3-hydroxy-3-methylbutyl) nicotinamide] yielded an IC50 against IRAK4 enzyme of 5 nM. The EC50 in the assay on TNFα was 286 nM.
Turning to `CC(C)(C)OC(=O)N1CC2(CC(Nc3cc(-c4ccc5cc(C#N)cnn45)ncc3C(=O)NC[C@@H](F)C(C)(C)O)C2)C1` [Example 448, (R)-tert-butyl 6-((2-(3-cyanopyrrolo[1,2-b]pyridazin-7-yl)-5-((2-fluoro-3-hydroxy-3-methylbutyl)carbamoyl)pyridin-4-yl)amino)-2-azaspiro[3.3]heptane-2-carboxylate], at IRAK4 enzyme, the IC50 is 32 nM. In addition, in the assay with TNFα, the EC50 amounted to 2040 nM.
With `CC(=O)N1CC(Nc2cc(-c3ccc4cc(C#N)cnn34)ncc2C(=O)NC[C@@H](F)C(C)(C)O)C1` [Example 449, (R)-4-((1-acetylazetidin-3-yl)amino)-6-(3-cyano-pyrrolo[1,2-b]pyridazin-7-yl)-N-(2-fluoro-3-hydroxy-3-methylbutyl)nicotinamide], it took 3 nM to reach half-maximal inhibition on IRAK4 enzyme (IC50). For the same compound, in the assay on TNFα, the EC50 is 361 nM.
Turning to `CC(C)(O)[C@H](F)CNC(=O)c1cnc(-c2ccc3cc(C#N)cnn23)cc1N[C@H]1C[C@@](C)(O)C1` [Example 450, 6-(3-cyanopyrrolo[1,2-b]pyridazin-7-yl)-N-((R)-2-fluoro-3-hydroxy-3-methylbutyl)-4-(((1s,3S)-3-hydroxy-3-methylcyclo-butyl)amino)nicotinamide], the IC50 against IRAK4 enzyme was < 1 nM. Moreover, the EC50 with TNFα came out at 44 nM.
Turning to `CNC(=O)c1ccc(Nc2cc(-c3ccc4cc(C#N)cnn34)ncc2C(=O)NCC#N)cc1` [Example 451, N-(cyanomethyl)-6-(3-cyanopyrrolo[1,2-b]pyridazin-7-yl)-4-((4-(methylcarbamoyl)phenyl)amino) nicotinamide], the IC50 at IRAK4 enzyme was < 1 nM. Also, in the assay on TNFα, the EC50 came to 30 nM.
For the compound `CC1(O)CC2(CC(Nc3cc(-c4ccc5cc(C#N)cnn45)ncc3C(=O)NCC#N)C2)C1` (centres unmarked) [Example 452, N-(cyanomethyl)-6-(3-cyanopyrrolo[1,2-b]pyridazin-7-yl)-4-((6-hydroxy-6-methyl-spiro[3.3]heptan-2-yl)amino)nicotinamide], the IC50 against IRAK4 enzyme was < 1 nM. In the assay on TNFα, the EC50 was found to be 112 nM.
As to `N#CCNC(=O)c1cnc(-c2ccc3cc(C#N)cnn23)cc1NC1CC2(CC(O)C2)C1` (centres unmarked) [Example 453, N-(cyanomethyl)-6-(3-cyanopyrrolo[1,2-b]pyridazin-7-yl)-4-((6-hydroxyspiro[3.3]heptan-2-yl)amino) nicotinamide], the IC50 against IRAK4 enzyme was < 1 nM. Further, the EC50 with TNFα turned out to be 68 nM.
Regarding `N#CCNC(=O)c1cnc(-c2ccc3cc(C#N)cnn23)cc1NC12CCC(C(=O)NC3COC3)(CC1)CC2` [Example 454, N-(cyanomethyl)-6-(3-cyanopyrrolo[1,2-b]pyridazin-7-yl)-4-((4-(oxetan-3-ylcarbamoyl)bicyclo[2.2.2]octan-1-yl)amino)nicotinamide], the IC50 on IRAK4 enzyme is < 1 nM. The EC50 in the assay with TNFα is 207 nM.
As to `COC(=O)N[C@H]1C[C@H](Nc2cc(-c3ccc4cc(C#N)cnn34)ncc2C(=O)NC[C@@H](F)C(C)(C)O)C1` [Example 455, methyl ((1R,3r)-3-((2-(3-cyanopyrrolo[1,2-b]pyridazin-7-yl)-5-(((R)-2-fluoro-3-hydroxy-3-methylbutyl)carbamoyl)pyridin-4-yl)amino)cyclobutyl)carbamate], on IRAK4 enzyme, the IC50 amounted to 1 nM. In addition, the EC50 in the assay on TNFα was found to be 118 nM.
On the same counts, the results for `CC(=O)N[C@H]1C[C@H](Nc2cc(-c3ccc4cc(C#N)cnn34)ncc2C(=O)NC[C@@H](F)C(C)(C)O)C1` [Example 456, 4-(((1r,3R)-3-acetamidocyclobutyl)amino)-6-(3-cyanopyrrolo[1,2-b]pyridazin-7-yl)-N-((R)-2-fluoro-3-hydroxy-3-methylbutyl)nicotinamide] are 1 nM and 394 nM.
The compound `COC(=O)N[C@H]1C[C@@H](Nc2cc(-c3ccc4cc(C#N)cnn34)ncc2C(=O)NC[C@@H](F)C(C)(C)O)C1` [Example 457, methyl ((1S,3s)-3-((2-(3-cyanopyrrolo[1,2-b]pyridazin-7-yl)-5-(((R)-2-fluoro-3-hydroxy-3-methylbutyl)carbamoyl)pyridin-4-yl)amino)cyclo-butyl)carbamate] returned an IC50 against IRAK4 enzyme of 3 nM. Further, in the assay on TNFα, the EC50 is 370 nM.
On the same counts, the results for `CC(=O)N[C@H]1C[C@@H](Nc2cc(-c3ccc4cc(C#N)cnn34)ncc2C(=O)NC[C@@H](F)C(C)(C)O)C1` [Example 458, 4-(((1s,3S)-3-acetamidocyclobutyl)amino)-6-(3-cyano-pyrrolo[1,2-b]pyridazin-7-yl)-N-((R)-2-fluoro-3-hydroxy-3-methylbutyl)nicotinamide] are 3 nM and 2470 nM.
Compound `N#CCNC(=O)c1cnc(-c2ccc3cc(C#N)cnn23)cc1N[C@H]1CCC[C@@H](O)C1` [Example 459, N-(cyanomethyl)-6-(3-cyanopyrrolo[1,2-b]pyridazin-7-yl)-4-(((1S,3R)-3-hydroxycyclohexyl)amino) nicotinamide] displayed an IC50 at IRAK4 enzyme of 1 nM. Moreover, in the assay with TNFα, the EC50 stood at 125 nM.
Take `N#CCNC(=O)c1cnc(-c2ccc3cc(C#N)cnn23)cc1NC1COC1` [Example 460, N-(cyanomethyl)-6-(3-cyanopyrrolo[1,2-b]pyridazin-7-yl)-4-(oxetan-3-ylamino) nicotinamide]: the IC50 against IRAK4 enzyme was < 1 nM. Also, in the assay with TNFα, the EC50 was determined as 71 nM.
For `N#CCNC(=O)c1cnc(-c2ccc3cc(C#N)cnn23)cc1NC1CC1` [Example 461, N-(cyanomethyl)-6-(3-cyanopyrrolo[1,2-b]pyridazin-7-yl)-4-(cyclopropylamino) nicotinamide], at IRAK4 enzyme, the half-inhibitory concentration (IC50) is < 1 nM. Also, the EC50 with TNFα came to 57 nM.
For `CC(C)Nc1cc(-c2ccc3cc(C#N)cnn23)ncc1C(=O)NCC#N` [Example 462, N-(cyanomethyl)-6-(3-cyanopyrrolo[1,2-b]pyridazin-7-yl)-4-(isopropylamino) nicotinamide], at IRAK4 enzyme, the IC50 was < 1 nM. In addition, the EC50 in the assay with TNFα was 67 nM.
